The record followed here is patent publication EP2647634A1, “Indole-pyrimidine derivatives and their therapeutic uses” (NOSCIRA, S.A., priority 2012, dated 2013).

For experiment [1], the target named is T1, Human recombinant Cdk5/p35 heterodimer (Homo sapiens, UniProt Q00535).
T1 construct: purchased Life Technologies
Put plainly: Cdk5 assay (luminescent detection of ADP, ADP Glo). The class given is biochemical. To be noted: 10 nM enzyme, 10 µM ATP, 2 µM histone H1, 40 min incubation. As for the experimental part:
(§1) The enzymatic activity of Cdk5 is determined with a commercial system, available from Promega (Madison, WI, USA) based on the luminescent detection of ADP, the byproduct of the kinase reaction. Human recombinant Cdk5/p35 heterodimer (purchased from Life Technologies, Carlsbad, CA, USA) is used as the enzyme source. At the end of the enzymatic reaction the remaining ATP is destroyed and afterwards the ADP produced during the kinase reaction is converted into ATP, which is further converted into light using a suitable luciferase. Therefore, the luminescent signal positively correlates with kinase activity. The assay is performed in 96-well conical bottom black plates, in a final volume of 12 µl with 10 nM enzyme concentration in 40 mM Tris-HCl pH 7.4, 20 mM MgCl2 and 0.01% bovine serum albumin using 10 µM ATP and 2 µM substrate. […] The assay is carried out in the presence of different concentrations of the tested compound, at a final 1% (v/v) DMSO concentration. After a 40 min incubation, at room temperature, 12 µl of a commercial "ADP Glo" solution (from Promega) is added to remove the remaining ATP and a subsequent 40 min incubation at room temperature is performed before adding 24 µl of a suitable "detection reagent" (also supplied by Promega) needed to carry out the transformation of ADP into ATP and its conversion into light by the luciferase enzyme included in the reagent. After a final 30 min incubation at room temperature luminescence is monitored in a suitable plate reader. […] For that purpose the data were fitted to a version of the classical 4-parameters isotherm equation using the nonlinear regression function of GraphPad™ Prism 5.0 (GraphPad Software Inc.).
On the technique in general: In ADP-Glo the light output rises with the ADP produced.

Experiment [2] has as its target T2, Human recombinant GSK-3β (Homo sapiens, UniProt P49841).
T2 construct: purchased Millipore
Nature of the experiment: GSK-3β assay (luminescent detection of ADP). To be noted: 4 nM enzyme, 5 µM ATP, 15 µM substrate peptide, 40 min incubation. The class given is biochemical. As for the experimental part:
as §1
The enzymatic activity of GSK-3β is determined with the same commercial system described above based on the luminescent detection of ADP. Human recombinant GSK-3β (purchased from Millipore) is used as the enzyme source. […] The assay is carried out in the presence of different concentrations of the tested compound at a final 1% (v/v) DMSO concentration.

Experiment [3] has as its target T3, Human recombinant CK1ε (Homo sapiens, UniProt P49674).
T3 construct: purchased Life Technologies
Nature of the experiment: CK1ε assay (luminescent detection of ADP). The class given is biochemical. As to conditions: 10 nM enzyme, 50 µM ATP, 50 µM substrate peptide, 40 min incubation. As for the experimental part: as §1
The enzymatic activity of CK1ε is determined with the same commercial system described above based on the luminescent detection of ADP. Human recombinant CK1ε (purchased from Life Technologies) is used as the enzyme source. The assay is performed in 96-well conical bottom black plates, in a final volume of 12 µl with 10 nM enzyme concentration in 40 mM Tris-HCl pH 7.4, 20 mM MgCl2 and 0.01% bovine serum albumin using 50 µM ATP and 50 µM substrate peptide. The latter is a synthetic peptide provided by AnaSpec (Fremont, CA, USA) under the commercial name "CK1 peptide substrate" and it is based on the sequence of rabbit muscle glycogen synthase with Ser7 phosphorylated (the exact sequence of the peptide is KRRRAL(pS)VASLPGL, where (pS) denotes phospho-Ser). The assay is carried out in the presence of different concentrations of the tested compound at a final 1% (v/v) DMSO concentration.

In experiment [4] the test system is phosphorylation at the Ser-396 residue of Tau protein in human neuroblastoma SH-SY5Y cells. Nature of the experiment: Cellular assay: phosphorylation at Ser-396 of Tau protein (ELISA). The class given is cell-based. As to conditions: 16 h incubation with compound, read-out: pSer396-Tau 16h pEC50 average (converted). How it is done:
The effect of the compounds in cells is determined by monitoring the level of phosphorylation at the Ser-396 residue of Tau protein in human neuroblastoma SH-SY5Y cells. Cells are grown in 96-well plates, 30,000 cells per well in a volume of 100 µl of 1:1 MEM:Ham's F12 medium including 10% (v/v) fetal bovine serum, 100 U/ml penicillin, 100 µg/ml streptomycin and 1% (v/v) 100-fold concentrated commercial stock of non-essential aminoacids (Gibco, Carlsbad, CA, USA), and incubated at 37°C during 24 h. Then, the corresponding amount of test compound is added to the wells to reach the desired concentration in 1% (v/v) DMSO. The system is incubated at 37°C during 16 h and afterwards cells are harvested, washed with phosphate buffer saline and incubated during 30 min on ice with 120 µl per well of "lysis buffer" (10 mM Tris-HCl pH 7.4, 100 mM NaCl, 1 mM EDTA, 2 mM sodium orthovanadate, 1% (v/v) Triton X-100, 10% (v/v) glycerol, 0.1% (w/v) sodium dodecyl sulfate, 0.5 % (w/v) sodium deoxycholate, 4% (v/v) 25-fold concentrated commercial stock of protease inhibitors (Roche, Basel, Switzerland) and 1 mM phenylmethylsulfonyl fluoride). 60 µl of this mixture is then placed in an empty 96-well plate and the levels of Ser-396 phosphorylation are determined using a commercial ELISA kit (Biosource, Carlsbad, CA, USA) following manufacturer's instructions. The levels of phosphrylation are expressed as percentage values after normalizing them to those in untreated cells and those values are used to calculate the pEC50s as described above.

T3 sequence (P49674 whole entry): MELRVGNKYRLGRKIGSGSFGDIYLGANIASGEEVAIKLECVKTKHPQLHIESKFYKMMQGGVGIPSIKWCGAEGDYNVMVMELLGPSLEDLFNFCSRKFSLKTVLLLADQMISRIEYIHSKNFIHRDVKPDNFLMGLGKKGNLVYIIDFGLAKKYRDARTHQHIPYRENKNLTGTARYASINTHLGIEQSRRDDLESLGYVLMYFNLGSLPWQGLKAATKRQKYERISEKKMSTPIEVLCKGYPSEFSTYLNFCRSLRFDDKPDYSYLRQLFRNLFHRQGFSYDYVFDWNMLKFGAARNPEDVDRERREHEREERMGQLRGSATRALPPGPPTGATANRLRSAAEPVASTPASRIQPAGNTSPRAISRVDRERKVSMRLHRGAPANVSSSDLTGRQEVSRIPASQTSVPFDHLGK
T2 sequence (P49841 whole entry): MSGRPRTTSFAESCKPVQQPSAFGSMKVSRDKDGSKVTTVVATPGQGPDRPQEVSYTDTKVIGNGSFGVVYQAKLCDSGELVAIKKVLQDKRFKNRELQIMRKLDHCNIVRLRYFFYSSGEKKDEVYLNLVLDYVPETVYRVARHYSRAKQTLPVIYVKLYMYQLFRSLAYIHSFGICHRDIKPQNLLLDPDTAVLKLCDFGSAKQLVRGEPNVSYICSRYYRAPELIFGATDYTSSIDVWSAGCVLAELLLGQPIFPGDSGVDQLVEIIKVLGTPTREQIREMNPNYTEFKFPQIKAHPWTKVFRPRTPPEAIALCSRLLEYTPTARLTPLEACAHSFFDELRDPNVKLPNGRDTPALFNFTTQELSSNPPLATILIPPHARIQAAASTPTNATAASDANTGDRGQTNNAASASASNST
T1 sequence (Q00535 whole entry): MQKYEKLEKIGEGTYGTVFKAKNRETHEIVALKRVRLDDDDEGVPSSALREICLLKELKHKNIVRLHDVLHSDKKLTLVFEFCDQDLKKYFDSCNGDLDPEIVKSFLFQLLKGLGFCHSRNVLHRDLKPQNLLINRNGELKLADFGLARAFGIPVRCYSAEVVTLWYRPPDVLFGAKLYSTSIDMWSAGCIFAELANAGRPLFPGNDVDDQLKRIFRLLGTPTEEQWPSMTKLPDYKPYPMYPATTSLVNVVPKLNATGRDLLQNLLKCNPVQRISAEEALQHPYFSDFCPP
T1 sequence (Q15078 whole entry partner): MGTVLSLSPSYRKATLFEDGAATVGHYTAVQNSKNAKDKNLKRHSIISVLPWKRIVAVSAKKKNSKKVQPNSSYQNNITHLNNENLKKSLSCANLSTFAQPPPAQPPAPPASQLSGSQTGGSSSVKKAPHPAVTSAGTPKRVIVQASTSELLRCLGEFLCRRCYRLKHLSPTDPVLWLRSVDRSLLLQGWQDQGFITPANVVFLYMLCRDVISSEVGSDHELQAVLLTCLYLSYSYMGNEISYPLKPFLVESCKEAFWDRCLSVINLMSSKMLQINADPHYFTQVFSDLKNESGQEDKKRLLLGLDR

As to `Cc1cc(-c2c(O)[nH]c3ccccc23)nc(N)n1` [Comparative example, reference compound], the values for the EC50 in experiment [1] (read-out: Cdk5 inhibition pEC50 average (converted)), in experiment [2] (read-out: GSK3β inhibition pEC50 average (converted)) and in experiment [3] (read-out: CK1 inhibition pEC50 average (converted)) were 501 nM, 398 nM and 3160 nM, respectively.

For the compound `Nc1nccc(-c2c(O)[nH]c3ccccc23)n1` [Compound 1, 3-(2-Amino-4-pyrimidinyl)-2-oxoindole], the “Cdk5 inhibition pEC50 average” value in experiment [1] is on record as 8.2. The “GSK3β inhibition pEC50 average” value in experiment [2] is given as 6.9. For the same compound, the “CK1 inhibition pEC50 average” value in experiment [3] worked out at 6.1.

With `CS(=O)(=O)c1ccc2c(-c3ccnc(N)n3)c(O)[nH]c2c1` [Compound 2, 3-(2-Amino-4-pyrimidinyl) -6-methanesulfonyl-2-oxoindole], the “Cdk5 inhibition pEC50 average” value in experiment [1] worked out at 6.7. The “GSK3β inhibition pEC50 average” value in experiment [2] was found to be 5.3. For the same compound, in experiment [3], the “CK1 inhibition pEC50 average” value turned out to be 5.4.

For `Nc1nccc(-c2c(O)[nH]c3ccc(Br)cc23)n1` [Compound 3, 3-(2-Amino-4-pyrimidinyl)-5-Bromo-2-oxoindole], the “Cdk5 inhibition pEC50 average” value in experiment [1] worked out at 8.3. In addition, in experiment [2], the “GSK3β inhibition pEC50 average” value worked out at 7.8. Also, the “CK1 inhibition pEC50 average” value in experiment [3] is reported as 6.1.

As to `Nc1nccc(-c2c(O)[nH]c3ccc(F)cc23)n1` [Compound 4, 3-(2-Amino-4-pyrimidinyl) -5-Fluoro-2-oxoindole], in experiment [1], the “Cdk5 inhibition pEC50 average” value is reported as 7.5. In experiment [2], the “GSK3β inhibition pEC50 average” value was 7.5. The “CK1 inhibition pEC50 average” value in experiment [3] worked out at 6.5. Besides, the EC50 in experiment [4] is 1260 nM.

Consider `Nc1nccc(-c2c(O)[nH]c3ccc(Cl)cc23)n1` [Compound 5, 3-(2-Amino-4-pyrimidinyl) -5-Chloro-2-oxoindole], for which, in experiment [1], the “Cdk5 inhibition pEC50 average” value is listed as 8.8. In experiment [2], the “GSK3β inhibition pEC50 average” value is given as 7.9. In addition, the “CK1 inhibition pEC50 average” value in experiment [3] was 6.7. Besides, the EC50 in experiment [4] is 316 nM.

In the case of `Nc1nccc(-c2c(O)[nH]c3ccc([N+](=O)[O-])cc23)n1` [Compound 6, 3-(2-Amino-4-pyrimidinyl) -5-Nitro-2-oxoindole], the “Cdk5 inhibition pEC50 average” value in experiment [1] is 6.9. Moreover, the “GSK3β inhibition pEC50 average” value in experiment [2] is 6.7. For the same compound, the “CK1 inhibition pEC50 average” value in experiment [3] was 4.7. Further, the EC50 in experiment [4] is 10000 nM.

On to `COC(=O)c1ccc2c(-c3ccnc(N)n3)c(O)[nH]c2c1` [Compound 7, 3-(2-Amino-4-pyrimidinyl) -2-oxoindole-6-carboxylic acid methyl ester], for which the “Cdk5 inhibition pEC50 average” value in experiment [1] turned out to be 6.8. Moreover, the “GSK3β inhibition pEC50 average” value in experiment [2] is on record as 6.6. Besides, in experiment [3], the “CK1 inhibition pEC50 average” value amounted to 5.9.

With `Nc1nccc(-c2c(O)[nH]c3ccc(F)c(F)c23)n1` [Compound 8, 3-(2-Amino-4-pyrimidinyl)-4,5-difluoro-2-oxoindol], the “Cdk5 inhibition pEC50 average” value in experiment [1] is reported as 7.6. Also, in experiment [2], the “GSK3β inhibition pEC50 average” value was determined as 7.6. In addition, the “CK1 inhibition pEC50 average” value in experiment [3] is listed as less than 4.
